Reference: patent US20250074911A1, “MACROCYCLIC BTK INHIBITORS” (Crossfire Oncology Holding B.V., priority 2021, published 2025)
pIC50: −log10 of the molar value. Read-outs that look alike come from different tables or passages of the source.

Columns and labels:
[1] = target: full-length wt-BTK enzyme (Homo sapiens (Human), UniProt Q06187); experiment: Biochemical kinase assay wt-BTK (IMAP)
Method in brief: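 Compound and enzyme (final 1.2 nM) were pre-incubated for 1 h at RT, after which the reaction was started with 4 μM ATP plus 50 nM fluorescein-MBP substrate peptide. After 2 h in the dark, the IMAP progressive binding reagent stopped the reaction, and phosphorylation was read by fluorescence polarization.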

[2] = target: full-length BTK C481S enzyme (Homo sapiens (Human), UniProt Q06187, C481S); experiment: Biochemical kinase assay BTK C481S (IMAP)
Chain of full-length BTK C481S enzyme (Q06187 whole entry C481S): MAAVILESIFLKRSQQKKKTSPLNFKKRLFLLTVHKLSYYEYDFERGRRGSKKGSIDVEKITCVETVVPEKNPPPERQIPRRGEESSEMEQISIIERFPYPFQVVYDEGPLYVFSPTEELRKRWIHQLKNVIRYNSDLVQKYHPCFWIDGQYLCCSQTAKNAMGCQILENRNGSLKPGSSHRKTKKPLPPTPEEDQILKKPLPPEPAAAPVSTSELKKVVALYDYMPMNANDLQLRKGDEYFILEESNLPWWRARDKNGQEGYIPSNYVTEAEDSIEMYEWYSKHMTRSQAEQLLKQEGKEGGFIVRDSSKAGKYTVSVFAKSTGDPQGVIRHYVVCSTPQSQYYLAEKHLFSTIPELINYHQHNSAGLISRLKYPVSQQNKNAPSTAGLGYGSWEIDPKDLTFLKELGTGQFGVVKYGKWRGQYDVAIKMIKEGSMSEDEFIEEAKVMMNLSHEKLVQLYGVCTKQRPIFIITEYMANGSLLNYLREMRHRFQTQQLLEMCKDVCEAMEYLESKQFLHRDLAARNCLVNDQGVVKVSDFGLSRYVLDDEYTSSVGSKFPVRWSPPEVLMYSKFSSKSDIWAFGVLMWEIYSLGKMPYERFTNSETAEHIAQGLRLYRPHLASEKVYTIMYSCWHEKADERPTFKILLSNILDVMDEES
Method in brief: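 IC50 values come from IMAP fluorescence polarization after quenching with progressive binding solution. The reaction ran 2 h at room temperature in the dark with 1.2 nM full-length C481S enzyme, 7 μM ATP and 50 nM fluorescein-labelled MBP-derived peptide, following a 1 h dark pre-incubation of compound with enzyme.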

[3] = test system: wt-REC-1 mantle cell lymphoma cells; experiment: Cell proliferation assay wt-REC-1 (ATPlite, 72 hours); assay type: cell-based; details: read-out: IC50 wt-REC-1
Method in brief: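 Luminescent viability read over 72 h, start-of-incubation signal recorded separately to separate growth from cell death. Percentage growth referenced to compound-free 0.3% DMSO wells; IC50 from 4-parameter logistic fit.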

REC-1 T474I cell lines = experiment: Cell proliferation assay REC-1 BTK T474I knock-in cells (ATPlite, 72 hours); assay type: cell-based; details: 72 hours, read-out: IC50 REC-1 T474I
Method in brief: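 REC-1 cells carrying CRISPR knock-in mutant BTK, single-cell cloned and sequence-confirmed, were exposed to compound for 72 h and read by ATPlite luminescence. Percentage growth was calculated against the signal at the start of incubation and against untreated 0.3% DMSO wells as maximum growth.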

[4] = test system: wt-TMD8 diffuse large B-cell lymphoma cells; experiment: Cell proliferation assay wt-TMD8 (ATPlite, 120 hours); assay type: cell-based; details: wt-TMD8 cells, 120 hours, ATPlite, read-out: IC50 wt-TMD8
Protocol: Cell proliferation assay wt-TMD8 diffuse large B-cell lymphoma cells were purchased from Tokyo Medical and Dental University and cultured in RPMI-1640 cell culture medium (cat. no. 61870036, Life Technologies), supplemented with 10% (v/v) heat-inactivated fetal bovine calf serum and 1% penicillin/[…]. 1600 cells per well (in 45 μl) were seeded in a white 384-well culture plate (cat. no. 781080, Greiner Bio-One) and allowed to rest for at least 5 hours at 37° C., 95% humidity, and 5% CO2. 5 μl compound solution was added to the cells and incubation was continued for 120 hours (5 days), followed by addition of 24 μl ATPlite 1Step™ (PerkinElmer, Groningen, The Netherlands) solution was added to each well. Luminescence was recorded on an Envision multimode reader. The cell signal at the start of incubation was recorded separately in order to distinguish between cell population growth and cell death. In addition, maximum growth was determined by incubation of a duplicate without compound in the presence of 0.3% DMSO. Percentage growth was used as the main y-axis signal.

Chain of full-length wt-BTK enzyme (Q06187 whole entry): as the sequence (Q06187 whole entry C481S) above, with S481C counted along it

pIC50 [1]	pIC50 [2]	pIC50 ([3]; 72 h)	pIC50 ([4]; B-cell)	pIC50 ([3]; 72 hours)	pIC50 [4]	Compound	pIC50 (REC-1 T474I cell lines; Homo sapiens, Rec1)	pIC50 (REC-1 T474I cell lines)
> 8.30	> 8.30	6.00 to 7.00	> 7.00			Nc1ncc2c3c1c(-c1ccc(C(=O)Nc4ccccn4)cc1)nn3[C@@H]1CCC[C@H](C1)C(=O)NCCCCCCCCC2 [Example 123]	5.00 to 6.30	
> 8.30	> 8.30	6.00 to 7.00	> 7.00			[2H]C1CCCCNC(=O)[C@@H]2CCC[C@H](C2)n2nc(-c3ccc(C(=O)Nc4cc(C(F)(F)F)ccn4)cc3)c3c(N)ncc(c32)C1[2H] (stereo partly shown) [Example 128]	6.30 to 7.00	
> 8.30	> 8.30	> 7.00	> 7.00			COc1ccc(F)cc1C(=O)NCc1ccc(-c2nc3n4c(cnc(N)c24)/C=C/CCN[C@H](C)CC(=O)N[C@@H]2CCC[C@@H]3C2)cc1 [Example 212]	5.00 to 6.30	
> 8.30	> 8.30	> 7.00	> 7.00			Nc1ncc2c3c1c(-c1ccc(C(=O)Nc4ccccn4)cc1)nn3[C@@H]1CCC[C@H](C1)C(=O)NCCCCCCC2 [Example 118]	5.00 to 6.30	
> 8.30	> 8.30			> 7.00	> 7.00	C[C@@H]1CC(=O)N[C@@H]2CC[C@H](C2)c2nc(-c3ccc(C(=O)Nc4cc(C#N)ccn4)cc3)c3c(N)ncc(n23)/C=C/CCN1 [Example 218]		5.00 to 6.30
> 8.30	> 8.30	6.00 to 7.00	> 7.00			C[C@@H]1CCn2nc(-c3ccc(C(=O)Nc4cc(C(F)(F)F)ccn4)cc3)c3c(N)ncc(c32)/C=C/CN2CCN[C@H](C2)C(=O)N1 [Example 142]	5.00 to 6.30	
> 8.30	> 8.30	> 7.00	> 7.00			COc1cc(-c2nn3c4c(cnc(N)c24)/C=C/CCN[C@H](C)CC(=O)N[C@@H]2CCC[C@@H]3C2)ccc1C(=O)Nc1cc(C(F)(F)F)ccn1 [Example 194]	5.00 to 6.30	
> 8.30	> 8.30	> 7.00	> 7.00			C[C@@H]1CC(=O)N[C@@H]2CCC[C@H](C2)n2nc(-c3ccc(C(=O)Nc4cc(F)ccn4)cc3)c3c(N)ncc(c32)/C=C/CCN1 [Example 191]	> 7.00	
7.30 to 8.30	7.30 to 8.30	6.00 to 7.00	> 7.00			Nc1ncc2c3c1c(-c1ccc(C(=O)Nc4ccccn4)cc1)nn3[C@@H]1CCC[C@H](C1)NC(=O)CCC/C=C\C2 [Example 99b]	5.00 to 6.30	
> 8.30	> 8.30	> 7.00	> 7.00			C[C@@H]1CCn2nc(-c3ccc(Oc4ccccc4)cc3)c3c(N)ncc(c32)/C=C/CCCCCC(=O)N1 [Example 173]	5.00 to 6.30	
> 8.30	> 8.30	5.00 to 6.00	> 7.00			C[C@@H]1CNC(=O)[C@@H]2CCC[C@H](C2)n2nc(-c3ccc(C(=O)Nc4cc(C(F)(F)F)ccn4)cc3)c3c(N)ncc(c32)/C=C/CN1C [Example 154]	5.00 to 6.30	
> 8.30	> 8.30	6.00 to 7.00	> 7.00			C[C@@H]1CCn2nc(-c3ccc(C(=O)Nc4cc(C(F)(F)F)ccn4)cc3)c3c(N)ncc(c32)/C=C/CCO[C@@H](C)CC(=O)N1 [Example 158]	5.00 to 6.30	
> 8.30	> 8.30	6.00 to 7.00	> 7.00			Nc1ncc2c3c1c(-c1ccc(C(=O)Nc4cc(C(F)(F)F)ccn4)cc1)nn3[C@@H]1CCC[C@H](C1)NC(=O)CCCCCC/C=C\C2 [Example 103b]	6.30 to 7.00	
> 8.30	> 8.30	6.00 to 7.00	> 7.00			C[C@@H]1CCn2nc(-c3ccc(C(=O)Nc4cc(C(F)(F)F)ccn4)cc3)c3c(N)ncc(c32)/C=C/CN2CC[C@H](C2)C(=O)N1 [Example 148]	5.00 to 6.30	
> 8.30	> 8.30	6.00 to 7.00	> 7.00			C[C@@H]1CNC(=O)[C@@H]2CCC[C@H](C2)n2nc(-c3ccc(C(=O)Nc4cc(C(F)(F)F)ccn4)cc3)c3c(N)ncc(c32)/C=C/CO1 [Example 149]	> 7.00	
> 8.30	> 8.30	> 7.00	> 7.00			C[C@@H]1CC(=O)N[C@@H]2CCC[C@H](C2)n2nc(-c3ccc(C(=O)Nc4cc(C(F)(F)F)ccn4)cc3)c3c(N)ncc(c32)/C=C/CN1 [Example 160]	6.30 to 7.00	

The remaining lines, values behind:

Compound	pIC50 [1]	pIC50 [2]	pIC50 ([3]; 72 h)	pIC50 ([4]; B-cell)	pIC50 ([3]; 72 hours)	pIC50 [4]	pIC50 (REC-1 T474I cell lines; Homo sapiens, Rec1)	pIC50 (REC-1 T474I cell lines)
Nc1ncc2c3c1c(-c1ccc(C(=O)Nc4cc(C(F)(F)F)ccn4)cc1)nn3[C@@H]1CCC[C@H](C1)NC(=O)CCCC[C@@H](O)/C=C/2 [Example 12]	> 8.30	> 8.30	> 7.00	> 7.00			5.00 to 6.30	
Nc1ncc2c3c1c(-c1ccc(C(=O)Nc4cc(C(F)(F)F)ccn4)cc1)nn3[C@@H]1CCC[C@H](C1)NC(=O)CNCC/C=C/2 [Example 32]	> 8.30	> 8.30	> 7.00	> 7.00			6.30 to 7.00	
CN1CC/C=C/c2cnc(N)c3c(-c4ccc(C(=O)Nc5cc(C(F)(F)F)ccn5)cc4)nn(c23)[C@@H]2CCC[C@H](C2)NC(=O)CC1 [Example 38]	> 8.30	> 8.30	> 7.00	> 7.00			> 7.00	
C[C@@H]1CCn2nc(-c3ccc(C(=O)Nc4cc(C(F)(F)F)ccn4)cc3)c3c(N)ncc(c32)/C=C/CCCCCC(=O)N1 [Example 60]	> 8.30	> 8.30	> 7.00	> 7.00			5.00 to 6.30	
CN1CC/C=C/c2cnc(N)c3c(-c4ccc(C(=O)Nc5cc(C(F)(F)F)ccn5)cc4)nn(c23)[C@@H]2CCC[C@H](C2)C(=O)NCC1 [Example 5]	> 8.30	> 8.30	> 7.00	> 7.00			6.30 to 7.00	
Nc1ncc2c3c1c(-c1ccc(C(=O)Nc4cc(C(F)(F)F)ccn4)cc1)nn3[C@@H]1CCC[C@H](C1)NC(=O)CCC[C@@H](O)/C=C/2 [Example 14]	> 8.30	> 8.30	6.00 to 7.00	> 7.00			5.00 to 6.30	
CN1C/C=C/c2cnc(N)c3c(-c4ccc(C(=O)Nc5cc(C(F)(F)F)ccn5)cc4)nn(c23)[C@@H]2CCC[C@H](C2)C(=O)NCC1 [Example 3]	> 8.30	> 8.30	6.00 to 7.00	> 7.00			5.00 to 6.30	
C[C@@H]1CCn2nc(-c3ccc(C(=O)Nc4cc(C(F)(F)F)ccn4)cc3)c3c(N)ncc(c32)/C=C/CCCOCC(=O)N1 [Example 70]	> 8.30	> 8.30	> 7.00	> 7.00			5.00 to 6.30	
C[C@H]1/C=C/c2cnc(N)c3c(-c4ccc(C(=O)Nc5cc(C(F)(F)F)ccn5)cc4)nn(c23)[C@@H]2CCC[C@H](C2)NC(=O)CCCN1C [Example 43]	> 8.30	> 8.30	6.00 to 7.00	> 7.00			5.00 to 6.30	
C[C@@H]1CCn2nc(-c3ccc(C(=O)Nc4cc(C(F)(F)F)ccn4)cc3)c3c(N)ncc(c32)/C=C/C[C@H](C)OCCC(=O)N1 [Example 73]	> 8.30	> 8.30	> 7.00	> 7.00			6.30 to 7.00	
C[C@@H]1CCn2nc(-c3ccc(C(=O)Nc4cc(C(F)(F)F)ccn4)cc3)c3c(N)ncc(c32)/C=C/CCOCCC(=O)N1 [Example 69]	> 8.30	> 8.30	6.00 to 7.00	> 7.00			6.30 to 7.00	
Nc1ncc2c3c1c(-c1ccc(C(=O)Nc4cc(C(F)(F)F)ccn4)cc1)nn3[C@@H]1CCCN(C1)C(=O)CCCCCCC/C=C/2 [Example 80]	> 8.30	> 8.30	> 7.00	> 7.00			> 7.00	
[2H]C1([2H])/C=C/c2cnc(N)c3c(-c4ccc(C(=O)Nc5cc(C(F)(F)F)ccn5)cc4)nn(c23)[C@@H]2CCC[C@H](C2)NC(=O)CCCC1 [Example 137]	> 8.30	> 8.30	> 7.00	> 7.00			> 7.00	
